For experiment [1], the target named is Gamma-aminobutyric acid receptor subunit alpha-1/alpha-2/beta-2/gamma-2 (Homo sapiens, UniProt P14867+P18507+P47869+P47870). Format: functional, cell-based.
The target of experiment [2] is T1, Alpha-1A adrenergic receptor (Homo sapiens, UniProt P35348).
T1 sequence (P35348 whole entry): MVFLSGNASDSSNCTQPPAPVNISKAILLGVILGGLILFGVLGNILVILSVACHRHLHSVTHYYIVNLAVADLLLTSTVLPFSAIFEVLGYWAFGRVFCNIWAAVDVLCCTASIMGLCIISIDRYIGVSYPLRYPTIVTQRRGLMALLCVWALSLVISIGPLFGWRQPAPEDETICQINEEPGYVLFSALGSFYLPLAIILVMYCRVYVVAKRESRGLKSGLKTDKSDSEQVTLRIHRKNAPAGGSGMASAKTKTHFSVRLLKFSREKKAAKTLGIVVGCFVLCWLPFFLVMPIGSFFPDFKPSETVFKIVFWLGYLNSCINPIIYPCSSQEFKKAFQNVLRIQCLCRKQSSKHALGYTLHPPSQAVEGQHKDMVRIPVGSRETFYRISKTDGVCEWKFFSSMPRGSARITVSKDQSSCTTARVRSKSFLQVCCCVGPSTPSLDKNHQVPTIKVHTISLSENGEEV

For another experiment, the target named is Acetylcholinesterase (Homo sapiens, UniProt P22303). Format: functional.
Chain of Acetylcholinesterase (P22303 whole entry): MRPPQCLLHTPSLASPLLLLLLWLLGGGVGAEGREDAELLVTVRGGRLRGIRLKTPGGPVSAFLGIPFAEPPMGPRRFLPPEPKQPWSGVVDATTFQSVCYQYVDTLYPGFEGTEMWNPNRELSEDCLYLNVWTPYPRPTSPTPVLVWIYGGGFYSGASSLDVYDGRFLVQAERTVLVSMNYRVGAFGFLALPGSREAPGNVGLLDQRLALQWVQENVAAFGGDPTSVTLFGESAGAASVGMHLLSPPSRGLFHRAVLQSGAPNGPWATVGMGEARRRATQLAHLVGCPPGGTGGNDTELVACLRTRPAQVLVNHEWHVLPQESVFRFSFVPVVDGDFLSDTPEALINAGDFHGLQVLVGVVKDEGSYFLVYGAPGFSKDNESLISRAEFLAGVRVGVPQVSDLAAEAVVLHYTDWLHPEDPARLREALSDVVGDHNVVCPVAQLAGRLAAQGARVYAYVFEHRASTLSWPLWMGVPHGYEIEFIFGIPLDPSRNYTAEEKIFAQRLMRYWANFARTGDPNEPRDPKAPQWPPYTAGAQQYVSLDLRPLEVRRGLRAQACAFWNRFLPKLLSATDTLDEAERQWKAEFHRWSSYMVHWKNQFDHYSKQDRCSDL
In experiment [3] the target is T2, Corticotropin-releasing factor receptor 2 (Homo sapiens, UniProt Q13324).
T2 sequence (Q13324 whole entry): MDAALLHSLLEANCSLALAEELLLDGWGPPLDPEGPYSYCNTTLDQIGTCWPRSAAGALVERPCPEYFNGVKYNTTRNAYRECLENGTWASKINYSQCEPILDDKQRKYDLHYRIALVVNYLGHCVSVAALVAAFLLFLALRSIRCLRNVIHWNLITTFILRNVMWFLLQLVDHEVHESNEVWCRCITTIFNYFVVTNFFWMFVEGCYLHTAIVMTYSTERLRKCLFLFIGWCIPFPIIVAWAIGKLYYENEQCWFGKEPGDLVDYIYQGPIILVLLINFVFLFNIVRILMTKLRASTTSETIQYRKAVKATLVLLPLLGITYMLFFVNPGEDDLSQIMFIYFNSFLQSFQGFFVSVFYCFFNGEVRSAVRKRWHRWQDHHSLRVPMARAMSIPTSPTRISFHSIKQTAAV

A further experiment has as its target T3, Thromboxane A2 receptor (Homo sapiens, UniProt P21731).
T3 sequence (P21731 whole entry): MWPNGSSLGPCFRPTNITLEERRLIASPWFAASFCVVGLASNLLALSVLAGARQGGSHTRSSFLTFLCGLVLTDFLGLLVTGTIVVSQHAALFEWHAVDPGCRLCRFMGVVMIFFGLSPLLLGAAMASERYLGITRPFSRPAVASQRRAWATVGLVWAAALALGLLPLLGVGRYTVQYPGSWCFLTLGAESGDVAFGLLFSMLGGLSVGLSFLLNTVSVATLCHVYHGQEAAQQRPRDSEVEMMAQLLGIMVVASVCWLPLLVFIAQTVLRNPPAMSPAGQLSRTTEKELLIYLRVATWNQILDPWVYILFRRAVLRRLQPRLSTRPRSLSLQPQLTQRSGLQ
Format: functional, cell-based.

In experiment [4] the target is T4, Alpha-2A adrenergic receptor (Homo sapiens, UniProt P08913).
T4 sequence (P08913 whole entry): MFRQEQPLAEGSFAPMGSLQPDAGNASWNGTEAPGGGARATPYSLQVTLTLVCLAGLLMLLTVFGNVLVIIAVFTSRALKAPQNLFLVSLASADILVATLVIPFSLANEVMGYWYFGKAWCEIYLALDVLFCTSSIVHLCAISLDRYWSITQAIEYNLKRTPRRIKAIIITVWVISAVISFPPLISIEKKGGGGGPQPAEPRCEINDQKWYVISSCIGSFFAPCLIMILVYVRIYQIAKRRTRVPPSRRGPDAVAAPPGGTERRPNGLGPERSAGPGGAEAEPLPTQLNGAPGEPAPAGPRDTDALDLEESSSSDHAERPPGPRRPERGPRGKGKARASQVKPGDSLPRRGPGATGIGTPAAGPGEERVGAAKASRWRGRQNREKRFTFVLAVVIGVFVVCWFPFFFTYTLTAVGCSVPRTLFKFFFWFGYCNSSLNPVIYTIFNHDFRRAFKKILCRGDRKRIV

For another experiment, the target named is T5, Androgen receptor (Homo sapiens, UniProt P10275).
T5 sequence (P10275 whole entry): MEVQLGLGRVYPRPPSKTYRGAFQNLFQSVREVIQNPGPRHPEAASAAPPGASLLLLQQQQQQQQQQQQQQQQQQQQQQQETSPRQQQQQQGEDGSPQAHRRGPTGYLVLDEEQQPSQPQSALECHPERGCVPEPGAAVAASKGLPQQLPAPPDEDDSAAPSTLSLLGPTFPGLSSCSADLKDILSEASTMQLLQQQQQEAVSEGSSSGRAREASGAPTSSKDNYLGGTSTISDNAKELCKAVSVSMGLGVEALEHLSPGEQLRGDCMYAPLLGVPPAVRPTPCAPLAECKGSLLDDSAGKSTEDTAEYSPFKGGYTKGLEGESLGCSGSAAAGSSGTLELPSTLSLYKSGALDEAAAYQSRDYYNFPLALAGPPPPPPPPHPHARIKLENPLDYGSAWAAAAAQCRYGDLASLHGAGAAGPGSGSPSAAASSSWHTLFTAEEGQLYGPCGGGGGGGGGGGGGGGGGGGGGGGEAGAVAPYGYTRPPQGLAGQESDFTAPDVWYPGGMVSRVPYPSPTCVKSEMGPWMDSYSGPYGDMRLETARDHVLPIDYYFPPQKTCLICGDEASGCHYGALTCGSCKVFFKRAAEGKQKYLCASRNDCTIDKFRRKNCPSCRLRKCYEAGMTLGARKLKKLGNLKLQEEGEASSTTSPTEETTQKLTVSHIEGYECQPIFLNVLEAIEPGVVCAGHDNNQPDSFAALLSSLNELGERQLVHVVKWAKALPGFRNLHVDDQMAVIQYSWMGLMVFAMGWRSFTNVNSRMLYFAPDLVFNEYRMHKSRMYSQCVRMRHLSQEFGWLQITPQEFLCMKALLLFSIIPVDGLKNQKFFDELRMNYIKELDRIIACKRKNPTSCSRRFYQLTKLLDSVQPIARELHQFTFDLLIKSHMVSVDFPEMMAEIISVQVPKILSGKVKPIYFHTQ

For another experiment, the target named is Mu-type opioid receptor (Homo sapiens, UniProt P35372). The experiment can be described thus: biochemical. Format: functional.
Chain of Mu-type opioid receptor (P35372 whole entry): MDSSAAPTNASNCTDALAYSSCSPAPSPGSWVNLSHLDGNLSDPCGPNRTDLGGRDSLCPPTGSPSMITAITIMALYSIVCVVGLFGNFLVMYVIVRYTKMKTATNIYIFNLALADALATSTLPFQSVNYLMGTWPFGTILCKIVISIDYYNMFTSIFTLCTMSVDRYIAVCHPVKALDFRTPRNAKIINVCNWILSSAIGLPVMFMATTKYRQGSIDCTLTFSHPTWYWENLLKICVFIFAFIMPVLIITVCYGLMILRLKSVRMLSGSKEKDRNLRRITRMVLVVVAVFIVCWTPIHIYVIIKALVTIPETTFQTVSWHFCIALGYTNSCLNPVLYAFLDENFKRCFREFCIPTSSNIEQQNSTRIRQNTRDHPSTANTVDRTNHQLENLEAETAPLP
Note: assay procedure not described here.

Chain of Gamma-aminobutyric acid receptor subunit alpha-1/alpha-2/beta-2/gamma-2 (P14867 whole entry): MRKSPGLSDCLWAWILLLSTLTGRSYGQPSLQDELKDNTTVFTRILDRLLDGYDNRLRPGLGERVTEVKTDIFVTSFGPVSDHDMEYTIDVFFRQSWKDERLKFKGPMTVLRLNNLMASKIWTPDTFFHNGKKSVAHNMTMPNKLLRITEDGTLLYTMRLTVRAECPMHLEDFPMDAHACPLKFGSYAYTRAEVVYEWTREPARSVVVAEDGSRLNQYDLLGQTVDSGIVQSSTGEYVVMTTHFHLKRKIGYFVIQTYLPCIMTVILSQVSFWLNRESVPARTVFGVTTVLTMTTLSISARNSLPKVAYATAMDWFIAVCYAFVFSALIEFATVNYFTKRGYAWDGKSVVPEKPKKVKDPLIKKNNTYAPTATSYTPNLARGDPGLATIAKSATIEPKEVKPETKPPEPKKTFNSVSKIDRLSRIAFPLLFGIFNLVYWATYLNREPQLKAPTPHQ
Chain of Gamma-aminobutyric acid receptor subunit alpha-1/alpha-2/beta-2/gamma-2 (P47870 whole entry): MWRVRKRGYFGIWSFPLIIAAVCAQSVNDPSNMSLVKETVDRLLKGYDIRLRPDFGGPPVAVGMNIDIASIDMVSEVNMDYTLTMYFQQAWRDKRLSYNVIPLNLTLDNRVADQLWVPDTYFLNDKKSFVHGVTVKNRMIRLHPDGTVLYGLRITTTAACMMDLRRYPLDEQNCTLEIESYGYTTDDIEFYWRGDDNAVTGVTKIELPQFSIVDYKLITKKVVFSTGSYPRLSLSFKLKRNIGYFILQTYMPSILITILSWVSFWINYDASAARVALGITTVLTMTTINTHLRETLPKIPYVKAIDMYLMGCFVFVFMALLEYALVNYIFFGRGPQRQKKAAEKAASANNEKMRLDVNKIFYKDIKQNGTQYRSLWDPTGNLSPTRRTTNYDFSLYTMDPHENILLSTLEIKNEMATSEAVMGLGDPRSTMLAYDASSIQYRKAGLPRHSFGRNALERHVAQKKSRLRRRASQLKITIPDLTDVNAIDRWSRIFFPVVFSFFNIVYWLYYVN
Chain of Gamma-aminobutyric acid receptor subunit alpha-1/alpha-2/beta-2/gamma-2 (P18507 whole entry): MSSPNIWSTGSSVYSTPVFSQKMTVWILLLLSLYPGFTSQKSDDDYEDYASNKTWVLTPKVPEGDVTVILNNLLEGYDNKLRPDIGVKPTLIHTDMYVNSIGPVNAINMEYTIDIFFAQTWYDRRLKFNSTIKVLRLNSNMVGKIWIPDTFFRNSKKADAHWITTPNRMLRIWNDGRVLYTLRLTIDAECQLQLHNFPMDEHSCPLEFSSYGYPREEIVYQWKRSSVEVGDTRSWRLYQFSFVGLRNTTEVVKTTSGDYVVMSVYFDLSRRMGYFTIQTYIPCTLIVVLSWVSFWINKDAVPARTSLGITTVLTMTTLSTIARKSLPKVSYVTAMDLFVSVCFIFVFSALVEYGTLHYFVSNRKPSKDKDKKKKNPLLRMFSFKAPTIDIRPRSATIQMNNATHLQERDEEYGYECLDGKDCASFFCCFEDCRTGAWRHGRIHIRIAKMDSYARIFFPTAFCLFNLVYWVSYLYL
Chain of Gamma-aminobutyric acid receptor subunit alpha-1/alpha-2/beta-2/gamma-2 (P47869 whole entry): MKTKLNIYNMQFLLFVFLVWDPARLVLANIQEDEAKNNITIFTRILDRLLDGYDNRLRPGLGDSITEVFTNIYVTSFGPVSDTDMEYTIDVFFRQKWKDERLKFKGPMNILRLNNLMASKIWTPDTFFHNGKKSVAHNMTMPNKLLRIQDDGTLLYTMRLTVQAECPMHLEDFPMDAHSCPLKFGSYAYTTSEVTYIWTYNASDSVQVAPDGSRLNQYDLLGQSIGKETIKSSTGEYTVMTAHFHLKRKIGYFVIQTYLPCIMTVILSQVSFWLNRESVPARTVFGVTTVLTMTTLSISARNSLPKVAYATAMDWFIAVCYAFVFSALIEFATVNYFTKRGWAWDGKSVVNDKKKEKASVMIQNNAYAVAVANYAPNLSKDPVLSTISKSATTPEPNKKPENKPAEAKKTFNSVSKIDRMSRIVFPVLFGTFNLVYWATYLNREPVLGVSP

The term AC50 denotes the midpoint of the concentration-response curve, whichever way the signal moves. For `NCC(CC(=O)O)c1ccc(Cl)cc1` (centres undefined) [BACLOFEN], the AC50 in experiment [1] is above 30 µM; in experiment [2], above 10 µM; at Acetylcholinesterase, above 30 µM; in experiment [3] it was above 30 µM; on Thromboxane A2 receptor it was above 30 µM; in experiment [4], above 10 µM.
On to `CC(C)C[C@H]1C(=O)N2CCC[C@H]2[C@]2(O)O[C@](NC(=O)[C@@H]3C=C4c5cccc6[nH]c(Br)c(c56)C[C@H]4N(C)C3)(C(C)C)C(=O)N12` [BROMOCRIPTINE], for which the AC50 (in experiment [1]; at Acetylcholinesterase; in experiment [3]; on Thromboxane A2 receptor) was above 30 µM throughout.
With `O=C(OCC(O)CO)c1ccccc1Nc1ccnc2cc(Cl)ccc12` (centres undefined) [GLAFENINE], the AC50 in experiment [1] is 17 µM; on Androgen receptor, above 30 µM; at Acetylcholinesterase it was above 30 µM; on Thromboxane A2 receptor, 9.8 µM.
For `CCC(C)n1ncn(-c2ccc(N3CCN(c4ccc(OCC5COC(Cn6cncn6)(c6ccc(Cl)cc6Cl)O5)cc4)CC3)cc2)c1=O` (centres undefined) [ITRACONAZOLE], the AC50 in experiment [2] is above 10 µM; in experiment [3], above 30 µM; at Mu-type opioid receptor, above 30 µM; in experiment [4], above 10 µM.
On to `c1ccc([C@H]2CN3CCSC3=N2)cc1` [LEVAMISOLE], for which the AC50 (in experiment [1]; on Acetylcholinesterase; at Thromboxane A2 receptor; at Mu-type opioid receptor) was above 30 µM in each case.
`C[C@@H](O)[C@H]1C(=O)N2C(C(=O)O)=C(S[C@@H]3CN[C@H](C(=O)N(C)C)C3)[C@H](C)[C@H]12` [MEROPENEM]: the AC50 (in experiment [1]; at Acetylcholinesterase; at Thromboxane A2 receptor) was above 300 µM in each case.
Take `CNC1Cc2ccccc2N(C)c2ccccc21` (centres undefined) [METAPRAMINE]: the AC50 (in experiment [1]; at Acetylcholinesterase; on Thromboxane A2 receptor) was above 30 µM each time.
`COc1ccc(CC(C)(C)NC[C@H](O)c2cc(O)cc3c2OCC(=O)N3)cc1` [OLODATEROL]: the AC50 (in experiment [1]; at Acetylcholinesterase) was above 30 µM in each case.
As for `c1cnc(N2CCN(Cc3ccc4c(c3)OCO4)CC2)nc1` [PIRIBEDIL], the AC50 (in experiment [1]; at Acetylcholinesterase; at Thromboxane A2 receptor) was above 30 µM throughout.
In the case of `Cc1c(C(=O)NN2CCCCC2)nn(-c2ccc(Cl)cc2Cl)c1-c1ccc(Cl)cc1` [RIMONABANT], the AC50 is above 30 µM in experiment [1]; 13.7 µM in experiment [2]; above 30 µM on Acetylcholinesterase; above 30 µM in experiment [3]; above 30 µM at Thromboxane A2 receptor; above 10 µM in experiment [4].
Take `CS(=O)(=O)c1ccc(C2=C(c3ccccc3)C(=O)OC2)cc1` [ROFECOXIB]: the AC50 is above 10 µM in experiment [2], above 30 µM in experiment [3], above 30 µM on Mu-type opioid receptor and above 10 µM in experiment [4].
Take `Cc1cn([C@H]2C=C[C@@H](CO)O2)c(=O)[nH]c1=O` [STAVUDINE]: the AC50 in experiment [2] was above 10 µM; in experiment [3] it was above 30 µM; on Thromboxane A2 receptor it was above 30 µM; in experiment [4], above 10 µM.
As to `Cn1nnc2c(C(N)=O)ncn2c1=O` [TEMOZOLOMIDE], the AC50 in experiment [1] is above 30 µM; in experiment [2] it was above 10 µM; on Acetylcholinesterase, above 30 µM; in experiment [3], above 30 µM; at Thromboxane A2 receptor, above 30 µM; in experiment [4] it was above 10 µM.
Take `N[C@@H]1[C@H]2CN(c3nc4c(cc3F)c(=O)c(C(=O)O)cn4-c3ccc(F)cc3F)C[C@@H]12` [TROVAFLOXACIN]: the AC50 (in experiment [1]; at Acetylcholinesterase; on Thromboxane A2 receptor) was above 30 µM each time.
`Cc1cn([C@H]2C[C@H](N=[N+]=[N-])[C@@H](CO)O2)c(=O)[nH]c1=O` [ZIDOVUDINE]: the AC50 in experiment [2] is above 10 µM; in experiment [3], above 30 µM; in experiment [4] it was above 10 µM.

The values are drawn from ChEMBL document CHEMBL5291721, “A preclinical secondary pharmacology resource illuminates target-adverse drug reaction associations of marketed drugs” (Nat Commun, 2023).
